Test [1] concerns the target T1, hPR (Homo sapiens, UniProt P06401).
T1 sequence (P06401 1-933): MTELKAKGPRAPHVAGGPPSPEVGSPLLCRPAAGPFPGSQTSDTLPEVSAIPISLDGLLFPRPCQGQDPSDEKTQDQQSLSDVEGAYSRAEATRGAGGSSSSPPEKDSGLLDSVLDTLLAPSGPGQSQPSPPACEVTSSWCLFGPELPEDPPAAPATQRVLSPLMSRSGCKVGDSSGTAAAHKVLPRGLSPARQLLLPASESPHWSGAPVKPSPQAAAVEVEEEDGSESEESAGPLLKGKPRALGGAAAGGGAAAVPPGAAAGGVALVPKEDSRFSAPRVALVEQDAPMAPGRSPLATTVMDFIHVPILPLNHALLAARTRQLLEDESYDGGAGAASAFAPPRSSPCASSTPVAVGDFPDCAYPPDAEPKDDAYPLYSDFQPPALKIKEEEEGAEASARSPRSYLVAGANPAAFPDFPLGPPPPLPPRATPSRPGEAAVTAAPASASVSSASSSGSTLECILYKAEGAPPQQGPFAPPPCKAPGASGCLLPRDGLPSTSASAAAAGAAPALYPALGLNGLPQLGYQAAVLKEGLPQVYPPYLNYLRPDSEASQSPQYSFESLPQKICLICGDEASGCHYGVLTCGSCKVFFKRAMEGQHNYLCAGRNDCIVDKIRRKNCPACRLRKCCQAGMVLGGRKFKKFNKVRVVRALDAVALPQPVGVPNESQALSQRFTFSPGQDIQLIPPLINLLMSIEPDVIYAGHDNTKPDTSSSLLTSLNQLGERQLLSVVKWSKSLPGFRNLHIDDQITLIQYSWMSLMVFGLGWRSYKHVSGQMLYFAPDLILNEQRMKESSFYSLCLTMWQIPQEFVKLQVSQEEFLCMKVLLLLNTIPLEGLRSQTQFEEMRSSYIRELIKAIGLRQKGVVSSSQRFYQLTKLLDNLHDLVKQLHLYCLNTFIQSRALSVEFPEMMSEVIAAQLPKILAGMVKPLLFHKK
Put plainly: hPR cotransfection assay in CV-1 cells, antagonist mode. The test is classed as cell-based. The following applies: for Emax: CV-1, CV-1 cells, read-out: hPR Antagonist CV-1 Cells Eff. (%); for Emax / hPR Antagonist CV-1 Cells Eff. (%): maximal inhibition of reference agonist at EC50 concentration; for IC50 / hPR Antagonist CV-1 Cells Eff. (%): CV-1 cells.
Experimental: (§1) Antagonist efficacy was determined as a function (%) of maximal inhibition of a reference agonist at EC50 concentration. All the cotransfection experiments were carried out in 96-well plates by automation (Beckman Biomomek automated workstation).

Test [2] addresses T2, hPR (Homo sapiens, UniProt P06401).
T2 sequence (P06401 679-933 limits assumed): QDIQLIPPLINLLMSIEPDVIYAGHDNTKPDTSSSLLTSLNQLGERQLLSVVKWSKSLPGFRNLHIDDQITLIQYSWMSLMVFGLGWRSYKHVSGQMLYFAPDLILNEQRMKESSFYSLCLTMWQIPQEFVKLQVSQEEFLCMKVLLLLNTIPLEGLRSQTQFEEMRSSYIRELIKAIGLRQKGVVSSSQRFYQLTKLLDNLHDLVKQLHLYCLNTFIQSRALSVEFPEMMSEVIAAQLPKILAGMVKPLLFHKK
Put plainly: T47D alkaline phosphatase assay, antagonist mode. The test is classed as cell-based. The following applies: T47D human breast cancer cells; for Emax: read-out: hPR Antagonists T47D Cells Eff. (%); for IC50: read-out: hPR Antagonists T47D Cells IC50.
Text: (§2) The potential tissue-selectivities of the selected analogues were examined by using the T47D alkaline phosphatase assay that was developed from human breast cancer cells with endogenous PRs.

Test [3] concerns the target T1, hPR. Nature of the test: hPR cotransfection assay in CV-1 cells, agonist mode. The test is classed as cell-based. The following applies: for Emax: CV-1, CV-1 cells, read-out: hPR Agonist CV-1 Cells Eff. (%); for Emax / hPR Agonist CV-1 Cells Eff. (%): relative to maximal response of progesterone as 100%.
Experimental: as §1
The target in the next test is T3, hPR-A (Homo sapiens, UniProt P06401).
T3 sequence (P06401 1-769 isoform P06401-2): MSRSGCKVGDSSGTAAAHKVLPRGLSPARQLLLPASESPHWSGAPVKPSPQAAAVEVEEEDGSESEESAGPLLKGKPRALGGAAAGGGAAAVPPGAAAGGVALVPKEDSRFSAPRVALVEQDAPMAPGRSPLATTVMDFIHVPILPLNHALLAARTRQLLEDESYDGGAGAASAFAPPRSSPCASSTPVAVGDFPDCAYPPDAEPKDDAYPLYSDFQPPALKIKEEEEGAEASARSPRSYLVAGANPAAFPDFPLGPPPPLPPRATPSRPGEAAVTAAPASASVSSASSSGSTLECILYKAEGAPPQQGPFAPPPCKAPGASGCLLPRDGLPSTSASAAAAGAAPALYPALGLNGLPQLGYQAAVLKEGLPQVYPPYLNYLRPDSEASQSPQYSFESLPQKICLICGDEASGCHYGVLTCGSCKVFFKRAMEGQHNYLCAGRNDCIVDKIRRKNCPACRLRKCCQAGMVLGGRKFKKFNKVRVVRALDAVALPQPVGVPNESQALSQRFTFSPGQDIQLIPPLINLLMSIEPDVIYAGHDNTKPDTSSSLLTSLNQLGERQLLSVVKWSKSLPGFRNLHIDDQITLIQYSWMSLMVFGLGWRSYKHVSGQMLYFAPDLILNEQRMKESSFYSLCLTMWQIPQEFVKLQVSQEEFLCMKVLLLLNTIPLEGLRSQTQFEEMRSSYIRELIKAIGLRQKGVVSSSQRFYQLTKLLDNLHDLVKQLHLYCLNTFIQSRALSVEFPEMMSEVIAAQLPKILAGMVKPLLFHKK
Nature of the test: Receptor competitive binding assay. The note with it: read-out: PR binding Ki.

For test [4], the target named is T2, hPR. Nature of the test: T47D alkaline phosphatase assay, agonist mode. The test is classed as cell-based. The note with it: T47D human breast cancer cells; for Emax: T47D, read-out: hPR Agonist T47D cells Eff. (%).
Text: as §2
The test system of the next test is immature rabbits. Nature of the test: McPhail (Clauberg) rabbit assay of progestational activity. The note with it: Oryctolagus cuniculus; estradiol-primed immature rabbits; glandular changes of the uterus; read-out: potency (MAD in mg/kg), minimum active dose. The test is classed as in vivo. How it is done:
The superiority of the 7,9-difluoro analogue compounds of the present invention was further characterized utilizing the McPhail rabbit model according to the following illustrative Examples. The Clauberg or McPhail assay is a classic assay utilizing rabbits to measure progestational activity. […] In this assay, immature rabbits are treated initially with estradiol, which induces growth in the uterus. This is followed by a progestin, which causes a large change in the glandular content of the uterus. It is this change in the glandular component which is a measure of the progestational activity of a progestin. The measurement of these glandular changes is carried out histologically using stained sections of the uterus. The in vivo comparison between the new 7,9-difluoro compounds and analogues with substitution patterns different from 7,9-difluoro (U.S. Pat. Nos. 5,693,646 and 5,696,127) is tabulated in Tables 7 and 8. The in vivo potency of the progestins is presented as the minimum active dose (MAD).

The mark [5] stands for this setting: CV-1 cells, read-out: hPR Agonist CV-1 Cells EC50.

A word on the IC50: it is the midpoint of a concentration-inhibition curve. The EC50 is the concentration giving half of the maximal effect. Usually Ki stands for the dissociation constant of the complex between target and ligand, obtained from inhibition or displacement. In the case of `COC1Oc2c(F)cc(F)cc2-c2ccc3c(c21)C(C)=CC(C)(C)N3` (racemic) [Compound 32, (±)-7,9-difluoro-5-methoxy-1,2-dihydro-2,2,4-trimethyl-5H-chromeno[3,4-f]quinoline], the Emax on hPR [1] was 76%; at hPR [2] it was 35%; at hPR [3], less than 20%; on hPR [4], 36%. For the same compound, the figures for the IC50 against hPR [1] and on hPR [2] were 75 nM and 250 nM, respectively. In addition, the EC50 is greater than 10000 nM on hPR [3] (setting [5]) and 315 nM at hPR [4]. For the same compound, the Ki at hPR-A was found to be 37 nM.
`CC1=CC(C)(C)Nc2ccc3c(c21)C(CC(=O)c1ccccc1)Oc1c(F)cc(F)cc1-3` (racemic) [Compound 45, (±)-7,9-difluoro-5-(2-oxo-2-phenylethyl)-1,2-dihydro-2,2,4-trimethyl-5H-chromeno[3,4-f]quinoline]: the Emax at hPR [1] is 79%; on hPR [2], less than 20%; at hPR [3] it was less than 20%; on hPR [4] it was 77%. In addition, the IC50 at hPR [1] is 42 nM; at hPR [2], greater than 10000 nM. For the same compound, the EC50 on hPR [3] (setting [5]) was greater than 10000 nM; at hPR [4] it was 195 nM. Also, the Ki at hPR-A is 18 nM.
As to `C#CCC1Oc2c(F)cc(F)cc2-c2ccc3c(c21)C(C)=CC(C)(C)N3` (racemic) [Compound 71, (±)-7,9-difluoro-5-(2-propynyl)-1,2-dihydro-2,2,4-trimethyl-5H-chromeno[3,4-f]quinoline], the minimal effective dose in the test with immature rabbits is less than 0.5 mg/kg.
With `C#C[C@]1(O)CC[C@H]2[C@@H]3CCC4=CC(=O)CC[C@@H]4[C@H]3C(=C)C[C@@]21CC` [3-ketodesogestrel, reference compound], at hPR [1], the IC50 is greater than 10000 nM; the “hPR Antagonist CV-1 Cells Eff. (%)” value is “na (na = not active (i.e. efficacy of <20 and potency of >10,000))”. Further, on hPR [2], the “hPR Antagonists T47D Cells Eff. (%)” value is “na (na = not active (i.e. efficacy of <20 and potency of >10,000))”; the IC50 was greater than 10000 nM. Also, the EC50 at hPR [3] (setting [5]) turned out to be 0.1 nM. Also, at hPR [3] (CV-1 cells), the “hPR Agonist CV-1 Cells Eff. (%)” value amounted to 190%. In addition, the Ki on hPR-A is 0.3 nM. Besides, on hPR [4], the midpoint of the response, the EC50, lay at 0.2 nM and the “hPR Agonist T47D cells Eff. (%)” value worked out at 94%.
Turning to `CC1=CC(C)(C)Nc2ccc3c(c21)/C(=C/c1ccccc1F)Oc1c(F)cc(F)cc1-3` [Compound 12, 7,9-difluoro-5(Z)-(2-fluorobenzylidene)-1,2-dihydro-2,2,4-trimethyl-5H-chromeno[3,4-f]quinoline], the minimal effective dose in the test on immature rabbits was found to be 0.5 mg/kg. At hPR [3] (Tables 3 and 4, values without footnote, read-out: hPR agonist potencies (EC50 in nM) in the cotransfection assay), the EC50 worked out at 2.55 nM.
Consider `CC1=CC(C)(C)Nc2ccc3c(c21)/C(=C/C#N)Oc1c(F)cc(F)cc1-3` [Compound 24, 7,9-difluoro-5(Z)-cyanomethylidene-1,2-dihydro-2,2,4-trimethyl-5H-chromeno[3,4-f]quinoline], for which the Emax at hPR [1] is less than 20%; on hPR [2] it was 26%; on hPR [3] it was 52%; on hPR [4], 72%. The results for the IC50 against hPR [1] and at hPR [2] were greater than 10000 nM and 830 nM, respectively. Besides, the EC50 on hPR [3] (setting [5]) is 9.4 nM; at hPR [4], 79 nM. On hPR-A, the Ki turned out to be 58 nM.
For `C[C@]12CCC(=O)C=C1[C@@H]1C[C@@H]1[C@H]1[C@@H]3[C@@H]4C[C@@H]4[C@@]4(CCC(=O)O4)[C@@]3(C)CC[C@@H]12` [Drospirenone, reference compound], the Emax on hPR [1] was less than 20%; on hPR [2], less than 20%; at hPR [3] it was 87%; on hPR [4] it was 117%.
Take `CC1=CC(C)(C)Nc2ccc3c(c21)C(c1ccc(Cl)c(C)c1)Oc1ccc(F)cc1-3` (stereo not shown) [Formula I X=9-F 4-Cl-3-Me-Ph, reference compound]: the minimal effective dose with immature rabbits is 1 mg/kg.
Regarding `C#C[C@]1(O)CC[C@H]2[C@@H]3CCC4=CC(=O)CC[C@@H]4[C@H]3CC[C@@]21CC` [Levonorgestrel, reference compound], the Emax is less than 20% at hPR [1], less than 20% at hPR [2], 216% on hPR [3] and 96% at hPR [4].
`CC(=O)O[C@]1(C(C)=O)CC[C@H]2[C@@H]3C[C@H](C)C4=CC(=O)CC[C@]4(C)[C@H]3CC[C@@]21C` [MPA, reference compound]: on hPR [1], the “hPR Antagonist CV-1 Cells Eff. (%)” value is “na (na = not active (i.e. efficacy of <20 and potency of >10,000))”. At hPR [2], the “hPR Antagonists T47D Cells Eff. (%)” value is “na (na = not active (i.e. efficacy of <20 and potency of >10,000))”. In addition, the “hPR Agonist CV-1 Cells Eff. (%)” value on hPR [3] (CV-1 cells) came out at 88%. The “hPR Agonist T47D cells Eff. (%)” value on hPR [4] was 114%.
For the compound `CC(=O)[C@H]1CC[C@H]2[C@@H]3CCC4=CC(=O)CC[C@]4(C)[C@H]3CC[C@]12C` [Prog., progesterone, reference compound], the Emax was less than 20% on hPR [1], less than 20% on hPR [2], 100% at hPR [3] and 100% on hPR [4].
As for `CC#C[C@]1(O)CC[C@H]2[C@@H]3CCC4=CC(=O)CCC4=C3[C@@H](c3ccc(N(C)C)cc3)C[C@@]21C` [RU486, mifepristone, reference compound], the “hPR Antagonist CV-1 Cells Eff. (%)” value on hPR [1] is 94%. Also, the “hPR Antagonists T47D Cells Eff. (%)” value on hPR [2] is reported as 94%. For the same compound, the “hPR Agonist CV-1 Cells Eff. (%)” value on hPR [3] (CV-1 cells) is “na (na = not active (i.e. efficacy of <20 and potency of >10,000))”. Besides, the “hPR Agonist T47D cells Eff. (%)” value on hPR [4] was “na (na = not active (i.e. efficacy of <20 and potency of >10,000))”.
As to `CN(C)c1ccc([C@H]2C[C@]3(C)[C@@H](CC[C@]3(O)CCCO)[C@@H]3CCC4=CC(=O)CCC4=C32)cc1` [ZK299, reference compound], the Emax on hPR [1] is 99%; at hPR [2], 86%; on hPR [3], less than 20%; at hPR [4], less than 20%.

The record behind these values is patent publication US7163946B2 (Ligand Pharmaceuticals Incorporated, priority 2002, dated 2007).
